Assay results published in publication PMC4957076, “Shared mechanism of teratogenicity of anti-angiogenic drugs identified in the chicken embryo model” (Scientific Reports, 2016).
Like-named read-outs stand apart in the source and are kept apart here.

How the values were obtained:
[1] = system: developing limb bud of chicken embryos; assay: Drug-soaked filter paper square placed on the developing limb bud of chicken embryos; type: in vivo; details: filter paper square soaked in drug, HH St 18–20
Source text: Given the potency of these drugs and the resulting embryonic lethality we focused our attention on how the drugs affect limb development. The developing limb bud is a well studied morphological assay[22][41][42] ideal for understanding mechanisms of embryogenesis and how drugs influence this process. Moreover, other anti-angiogenic drugs like thalidomide and valproate cause limb defects. […] We therefore established a method where a small filter paper square soaked in the drug of interest could be placed directly onto the limb tissue of the embryo, thus avoiding or minimalizing exposure of the drug to other developing tissue/structures and retaining high viability. Filter paper squares were soaked for 10 minutes prior to removal of the embryonic membrane of HH St 18–20 (E2.5-E3) chicken embryos, then placed over the developing limb bud. Filter paper squares soaked in 0.1% DMSO had no effect on limb outgrowth.
The tissue was then cleared in methyl salicylate.

HUVEC cells = assay: Endothelial cell proliferation assay (CCK-8); type: cell-based, Human; details: Homo sapiens, 18 hours exposure, CCK-8 assay, n = 9
Procedure: Anti-angiogenic drugs were screened in a concentration gradient in the HUVEC culture assay. […] Cell proliferation was assessed using a CCK-8 assay (Dojindo). Statistical analysis by two-way Anova. Error represents the standard error of the mean.
HUVEC cells were purchased from ATCC (Manassas, VA) and cultured as previously described. No further authentication was performed. Cells were seeded at 6.5 × 10^4 cells per well in 100 μL of medium per well. Drugs were diluted in prewarmed DMEM. Serial dilutions were performed from 1000–0.1 nM. The cells were left to grow for 18 hours with exposure to vehicle control (DMSO) or drugs. Experiments were done in triplicate each time. Cellular proliferation was assessed using a CCK-8 assay (Dojindo, Rockville, MD). All plates were read at 450 nm.

[2] = system: fli1:EGFP zebrafish embryos; assay: fli1:EGFP zebrafish embryo exposure: survival and intersegmental vessel development; type: in vivo
Procedure: We then examined the extent and nature of the anti-angiogenic effects of the compounds using transgenic fli1:EGFP zebrafish embryos. The vasculature of these fish is tagged with EGFP and the transparency of the zebrafish allows for visualization of the forming blood vessels and any effect of anti-cancer drugs on their development over time (Fig. 4). A known anti-angiogenic and teratogenic compound (CPS49) was screened alongside the drugs as a positive control at 10 μg/mL (30 μM), a previously established anti-angiogenic concentration.
fli1:EGFP zebrafish were obtained from the Zebrafish international Resource Centre[29] and maintained in an approved aquarium habitat at 28 °C. At 24 hours post fertilization (hpf) the embryos were checked for GFP expression using a fluorescent microscope and manually dechorionated with forceps, exposed to either a vehicle control, or an anti-angiogenic anti-cancer compound (at 24 hpf) for 24 hours and imaged at 48 hpf. At this point the embryos were anaesthetized in 0.1% tricaine and the length and number of intersegmental vessels (ISV) were quantified as previously described. A minimum of 10 embryos were screened per drug, per concentration, and experiments were performed in triplicate.

Mouse = details: cited from earlier work
chicken embryos [3] = system: chicken embryos
Procedure: We then administered the compounds to developing chicken embryos to observe any teratogenic effects. […] At 48 hours post drug application both the survival rate and the incidence of defects were analyzed. A range of concentrations was tested to determine the effects and optimal concentration that was not 100% lethal.
Fertilized white leghorn chicken embryos purchased from Henry Stewart Ltd. (Herefordshire, United Kingdom) were maintained in an incubator as described previously. At Hamburger and Hamilton stage 18–20 (E2.5-3)[54] the eggs were windowed and the embryos were prepared for drug exposure. To establish a dose response the drugs were applied once to the embryos and growth was monitored as described previously. In a second set of experiments, filter paper squares were cut 100 μm × 100 μm and soaked in the compound of interest for 10 minutes. While the filter paper squares absorbed the solution, embryonic membranes were removed and the sponge was then placed onto the limb bud. The eggs were sealed with tape and returned to an incubator. The embryos were checked daily for developmental defects and to ensure the filter paper squares remained in place. Control embryos were treated with 100 μL PBS with 0.1% DMSO. Embryos were removed from the eggs and fixed in 5% TCA at 4 degrees for 24 hours. Embryos were then washed in alcian blue for 8 hours, and placed in acid ethanol over night before being dehydrated in 100% ethanol for three one hour treatments. The tissue was then cleared in methyl salicylate. Cartilage was imaged and subsequently measured using a graticule scale and ImageJ. A minimum of 8 embryos was used per drug, per concentration. All animal work was licensed and carried out in accordance with and with approval of UK Home Office and Institutional ethical and welfare guidelines.

[4] = human; cited from earlier work
chicken embryos [5] = details: thalidomide not tested in this paper; cited from earlier work
[6] = system: Mouse (strain specific) Rabbit; set-up: method as in PMID 11006136; details: cited from earlier work

CO[C@@H]1[C@H](OC(=O)NC(=O)CCl)CC[C@]2(CO2)[C@H]1[C@@]1(C)O[C@@H]1CC=C(C)C [TNP-470]
effect on limb after direct application to limb bud [1]: Tissue was necrotic-looking
IC50 (HUVEC cells): < 0.01 µM
treated zebrafish killed ([2]; 200 μg/mL): 90%
vessel outgrowth ([2]; 200 μg/mL): reducing vessel outgrowth
effect at low doses ([2]; <200 μg/mL): little effect
relative potency in reducing vessel outgrowth ([2]; concentration gradient, within 24 hours of drug exposure): no effect until 200 μg/mL
Defects produced (Mouse; Mouse/Mice): Complete failure of embryonic growth
Systemic exposure (AUC) compared to human exposure (Mouse; Mouse/Mice): Below human
effect during pregnancy in mouse models (Mouse): anti-angiogenic, disrupting newly developing blood vessels in the placenta and embryonic eye
Defects produced in chicken embryos (chicken embryos [3]; Table 1 summary): Embryolethality, cranial hemorrhaging, micropthalmia, limb defects, spine
defects observed in treated embryos (chicken embryos [3]; global treatment, surviving embryos): twisting of the spinal cord
Clinical Toxicities [4]: Neurotoxicity

O=C1CCC(N2C(=O)c3ccccc3C2=O)C(=O)N1 (stereo not shown) [Thalidomide, thalidomide]
Defects produced in chicken embryos (chicken embryos [5]): Embryolethality, cranial hemorrhaging, micropthalmia, limb defects, spine
Defects produced [6]: Increased resorptions, embryotoxicity, eye defects
Systemic exposure (AUC) compared to human exposure [6]: At recommended human dose/Not applicable
Clinical Toxicities [4]: Somnolence, constipation, neuropathy, venous thromboembolism and rash/unknown
